Reference: patent US20240034736A1, “HSD17B13 INHIBITORS AND USES THEREOF” (FL2022-001, Inc., priority 2020, published 2024)

target: Recombinant human HSD17B13 enzyme (Homo sapiens (Human), UniProt Q7Z5P4); experiment: HSD17b13 NAD(P)H-Glo Biochemical Assay; settings: 50 uM estradiol, 1 mM NAD+; read-out: HSD17β13 IC50
In short: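 Recombinant human HSD17B13 was pre-incubated with inhibitor for 20 min at RT in 20 mM Tris pH 7.4 with 0.002% Tween-20 and 0.02% BSA. Reaction then ran with 50 uM estradiol and 1 mM NAD+ (final) for 3 h at 37° C. NADH formed was detected by NAD(P)H-Glo luminescence after 1 h at RT.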

Recombinant human HSD17B13 enzyme, sequence (Q7Z5P4 20-300): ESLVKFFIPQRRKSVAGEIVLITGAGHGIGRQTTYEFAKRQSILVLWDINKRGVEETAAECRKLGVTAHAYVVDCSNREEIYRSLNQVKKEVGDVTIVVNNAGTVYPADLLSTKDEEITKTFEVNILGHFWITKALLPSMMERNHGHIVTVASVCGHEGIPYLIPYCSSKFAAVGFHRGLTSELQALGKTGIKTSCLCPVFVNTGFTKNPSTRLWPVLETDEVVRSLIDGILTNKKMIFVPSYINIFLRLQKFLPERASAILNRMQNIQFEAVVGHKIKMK

| Structure (SMILES) | IC50 [nM] |
| --- | --- |
| CN(c1ccc2c(c1)c(C(=O)O)nn2-c1cc(C(F)(F)F)c(F)c(O)c1F)C1CCOCC1 [Compound 19.89, 1-(2,4-Difluoro-3-hydroxy-5-(trifluoromethyl)phenyl)-5-(methyl(tetrahydro-2H-pyran-4-yl)amino)-1H-indazole-3-carboxylic Acid] | 1000 to 30000 |
| CS(=O)(=O)N1CCN(c2cc3cn(-c4cc(O)c(F)c(C(F)(F)F)c4)nc3cc2Cl)CC1 [Compound 19.46, 5-(6-Chloro-5-(4-(methylsulfonyl)piperazin-1-yl)-2H-indazol-2-yl)-2-fluoro-3-(trifluoromethyl)phenol] | < 100 |
| CS(=O)(=O)c1ccc(-c2ccc3c(cnn3-c3ccc(F)c(O)c3)c2)cc1 [Compound 5.05, 2-Fluoro-5-(5-(4-(methylsulfonyl)phenyl)-1H-indazol-1-yl)phenol] | 100 to 1000 |
| Nc1ccc(-c2ccc3c(cnn3-c3ccc(F)c(O)c3)c2)c(Cl)c1 [Compound 9, 5-(5-(4-Amino-2-chlorophenyl)-1H-indazol-1-yl)-2-fluorophenol] | 100 to 1000 |
| O=C(O)CCOc1ccc(-c2ccc3c(cnn3-c3ccc(F)c(O)c3)c2)cc1 [Compound 15, 3-(4-(1-(4-Fluoro-3-hydroxyphenyl)-1H-indazol-5-yl)phenoxy)propanoic acid] | 1000 to 30000 |
| Oc1cc(-n2ncc3cc(-c4ccc(N5CCOCC5)cc4Cl)ccc32)ccc1F [Compound 5.09, 5-(5-(2-Chloro-4-morpholinophenyl)-1H-indazol-1-yl)-2-fluorophenol] | 1000 to 30000 |
| CNc1nn(-c2cc(C(F)(F)F)c(F)c(O)c2F)c2ccc(N(C)C3CCOCC3)cc12 [Compound 19.106, 2,6-Difluoro-3-(5-(methyl(tetrahydro-2H-pyran-4-yl)amino)-3-(methylamino)-1H-indazol-1-yl)-5-(trifluoromethyl)phenol] | 100 to 1000 |
| Oc1ccc(-c2ccc3c(cnn3-c3cc(O)c(F)c(F)c3)c2)c(Cl)c1 [Compound 4.10, 5-(5-(2-Chloro-4-hydroxyphenyl)-1H-indazol-1-yl)-2,3-difluorophenol] | 100 to 1000 |
| Cc1nn(-c2cc(C(F)(F)F)c(F)c(O)c2F)c2cnc(N(C)C3CCOCC3)nc12 [Compound 19.78, 2,6-Difluoro-3-(3-methyl-5-(methyl(tetrahydro-2H-pyran-4-yl)amino)-1H-pyrazolo[4,3-d]pyrimidin-1-yl)-5-(trifluoromethyl)phenol] | < 100 |
| Cc1cccc(-c2ccc3c(cnn3-c3ccc(F)c(O)c3)c2)c1 [Compound 4.08, 2-Fluoro-5-(5-(m-tolyl)-1H-indazol-1-yl)phenol] | 1000 to 30000 |
| COc1ccc(-c2ccc3c(cnn3-c3ccc(F)c(O)c3)c2)c(Cl)c1 [Compound 5.03, 5-(5-(2-Chloro-4-methoxyphenyl)-1H-indazol-1-yl)-2-fluorophenol] | 100 to 1000 |
| Oc1cc(-n2ncc3cc(-c4ccc(Cl)cc4)ccc32)ccc1F [Compound 4.09, 5-(5-(4-Chlorophenyl)-1H-indazol-1-yl)-2-fluorophenol] | 100 to 1000 |
| CNS(=O)(=O)c1ccc(-c2ccc3c(cnn3-c3ccc(F)c(O)c3)c2)cc1 [Compound 5.13, 4-(1-(4-Fluoro-3-hydroxyphenyl)-1H-indazol-5-yl)-N-methylbenzenesulfonamide] | 100 to 1000 |
| NC(=O)c1ccc(-c2ccc3c(cnn3-c3ccc(F)c(O)c3)c2)c(Cl)c1 [Compound 13, 3-Chloro-4-(1-(4-fluoro-3-hydroxyphenyl)-1H-indazol-5-yl)benzamide] | 100 to 1000 |
| CC1(C)CN(S(C)(=O)=O)CCN1c1cc2cn(-c3cc(O)c(F)c(C(F)(F)F)c3)nc2cn1 [Compound 19.05, 5-(5-(2,2-Dimethyl-4-(methylsulfonyl)piperazin-1-yl)-2H-pyrazolo[3,4-c]pyridine-2-yl)-2-fluoro-3-(trifluoromethyl)phenol] | 100 to 1000 |
| Cc1nn(-c2cc(C(F)(F)F)c(F)c(O)c2F)c2ccc(N3CCOCC34CC4)nc12 [Compound 19.48, 2,6-Difluoro-3-(3-methyl-5-(7-oxa-4-azaspiro[2.5]octan-4-yl)-1H-pyrazolo[4,3-b]pyridine-1-yl)-5-(trifluoromethyl)phenol] | 100 to 1000 |
| Cc1nn(-c2cc(C(F)(F)F)c(F)c(O)c2F)c2cc(F)c(N3CCOCC34CC4)nc12 [Compound 19.50, 2,6-Difluoro-3-(6-fluoro-3-methyl-5-(7-oxa-4-azaspiro[2.5]octan-4-yl)-1H-pyrazolo[4,3-b]pyridine-1-yl)-5-(trifluoromethyl)phenol] | < 100 |
| Oc1cc(F)cc(-n2ncc3cc(-c4ccc(O)c(Cl)c4)ccc32)c1 [Compound 3, 2-Chloro-4-(1-(3-fluoro-5-hydroxyphenyl)-1H-indazol-5-yl)phenol] | 1000 to 30000 |
| COc1nn(-c2cc(C(F)(F)F)c(F)c(O)c2F)c2ccc(N(C)C3CCOCC3)cc12 [Compound 19.72, 2,6-Difluoro-3-(3-methoxy-5-(methyl(tetrahydro-2H-pyran-4-yl)amino)-1H-indazol-1-yl)-5-(trifluoromethyl)phenol] | 100 to 1000 |
| Cc1nn(-c2cc(C(F)(F)F)c(F)c(O)c2F)c2cnc(N3CC(C)(C)OC(C)(C)C3)nc12 [Compound 19.79, 2,6-Difluoro-3-(3-methyl-5-(2,2,6,6-tetramethylmorpholino)-1H-pyrazolo[4,3-d]pyrimidin-1-yl)-5-(trifluoromethyl)phenol] | < 100 |
| Cc1nn(-c2cc(C(F)(F)F)c(F)c(O)c2F)c2cc(F)c(N(C)C3CCOCC3)cc12 [Compound 19.68, 2,6-Difluoro-3-(6-fluoro-3-methyl-5-(methyl(tetrahydro-2H-pyran-4-yl)amino)-1H-indazol-1-yl)-5-(trifluoromethyl)phenol] | < 100 |
| CN(c1ccc2c(c1)c(N)nn2-c1cc(C(F)(F)F)c(F)c(O)c1F)C1CCOCC1 [Compound 19.93, 3-(3-Amino-5-(methyl(tetrahydro-2H-pyran-4-yl)amino)-1H-indazol-1-yl)-2,6-difluoro-5-(trifluoromethyl)phenol] | 100 to 1000 |
| CS(=O)(=O)N1CCN(c2ccc3c(cnn3-c3cc(C(F)(F)F)cc(O)n3)c2)CC1 [Compound 31, 6-(5-(4-(Methylsulfonyl)piperazin-1-yl)-1H-indazol-1-yl)-4-(trifluoromethyl)pyridin-2-ol] | 100 to 1000 |
| Cc1nn(-c2ccc(F)c(O)c2)c2cc(F)c(N3CCN(S(C)(=O)=O)CC34CC4)cc12 [Compound 19.103, 2-Fluoro-5-(6-fluoro-3-methyl-5-(7-(methylsulfonyl)-4,7-diazaspiro[2.5]octan-4-yl)-1H-indazol-1-yl)phenol] | 100 to 1000 |

The next lines start with the values.

| IC50 [nM] | Structure (SMILES) |
| --- | --- |
| 1000 to 30000 | CC1(C)CN(S(C)(=O)=O)CCN1c1ccc2c(cnn2-c2cc(O)c(F)c(F)c2)c1 [Compound 21.30, 5-(5-(2,2-Dimethyl-4-(methyl-sulfonyl)piperazin-1-yl)-1H-indazol-1-yl)-2,3-difluoro-phenol] |
| 100 to 1000 | CC(=O)N1CC(Oc2ccc3c(cnn3-c3cc(O)c(F)c(F)c3)c2)C1 [Compound 24.01, 1-(3-((1-(3,4-Difluoro-5-hydroxyphenyl)-1H-indazol-5-yl)oxy)azetidin-1-yl)ethan-1-one] |
| 1000 to 30000 | CS(=O)(=O)N1CCN(c2ccc3c(cnn3-c3cc(O)c(F)c(F)c3)c2Cl)CC1 [Compound 21.15, 5-(4-Chloro-5-(4-(methyl-sulfonyl)piperazin-1-yl)-1H-indazol-1-yl)-2,3-difluoro-phenol] |
| 100 to 1000 | CC(C)S(=O)(=O)NC1CN(c2cc3cnn(-c4cc(O)c(F)c(F)c4)c3cc2Cl)C1 [Compound 21.33, N-(1-(6-Chloro-1-(3,4-difluoro-5-hydroxyphenyl)-1H-indazol-5-yl)azetidin-3-yl)propane-2-sulfonamide] |
| 100 to 1000 | CS(=O)(=O)N1CCN(c2cc3cnn(-c4cc(O)c(F)c(F)c4)c3cc2F)CC1 [Compound 21.24, 2,3-Difluoro-5-(6-fluoro-5-(4-(methylsulfonyl)piperazin-1-yl)-1H-indazol-1-yl)phenol] |
| 1000 to 30000 | CS(=O)(=O)N1CCN(c2cc(Cl)c3c(cnn3-c3cc(O)c(F)c(F)c3)c2)CC1 [Compound 21.16, 5-(7-Chloro-5-(4-(methyl-sulfonyl)piperazin-1-yl)-1H-indazol-1-yl)-2,3-difluoro-phenol] |
| 100 to 1000 | CS(=O)(=O)N1CCN(c2cc3cnn(-c4cc(O)c(F)c(F)c4)c3cc2C2CC2)CC1 [Compound 21.49, 5-(6-Cyclopropyl-5-(4-(meth-ylsulfonyl)piperazin-1-yl)-1H-indazol-1-yl)-2,3-difluoro-phenol] |
| 100 to 1000 | CS(=O)(=O)N1CCN(c2ccc3c(cnn3-c3cc(O)c(F)c(C(F)(F)F)c3)c2)C2(CC2)C1 [Compound 21.45, 2-Fluoro-5-(5-(7-(methyl-sulfonyl)-4,7-diazaspiro[2.5]-octan-4-yl)-1H-indazol-1-yl)-3-(trifluoromethyl)phenol] |

same assay, conditions: read-out: HSD17β13 inhibition at 10 uM

| inhibition at 10 µM [%] | Structure (SMILES) |
| --- | --- |
| < 20 | CN(C)C(=O)C1(c2ccc3c(cnn3-c3cc(O)c(F)c(F)c3)c2)CCN(S(C)(=O)=O)CC1 [Compound 29.01, 4-(1-(3,4-Difluoro-5-hydroxy-phenyl)-1H-indazol-5-yl)-N,N-dimethyl-1-(methyl-sulfonyl)piperidine-4-carbox-amide] |

same assay, conditions: read-out: HSD17β13 inhibition at 30 uM

| inhibition at 30 µM [%] | Structure (SMILES) |
| --- | --- |
| 49 | CS(=O)(=O)N1CCC(C(=O)O)(c2ccc3c(cnn3-c3cc(O)c(F)c(F)c3)c2)CC1 [Compound 28, 4-(1-(3,4-Difluoro-5-hydroxyphenyl)-1H-indazol-5-yl)-1-(methylsulfonyl)piperidine-4-carboxylic Acid] |
| 45 | Cc1ccc(O)c(F)c1-n1ncc2cc(N3CCN(S(C)(=O)=O)CC3)ncc21 [Compound 19.43, 2-Fluoro-4-methyl-3-(5-(4-(methylsulfonyl)piperazin-1-yl)-1H-pyrazolo[3,4-c]pyridine-1-yl)phenol] |
| < 20 | COC(=O)c1cc2cc(N3CCN(S(C)(=O)=O)CC3)ccc2n1-c1ccc(F)c(O)c1 [Compound 21.62, Methyl 1-(4-fluoro-3-hydroxy-phenyl)-5-(4-(methylsulfonyl)-piperazin-1-yl)-1H-indole-2-carboxylate] |
